Results as given in BindingDB's records for doi:10.1016/S0960-894X(00)80413-8 (1992).

Target: Ribose-phosphate pyrophosphokinase (Escherichia coli) (UniProt P0A717)
Assay: Inhibitory concentration against Escherichia coli Pyrophosphate Synthetase (PRPP)

Chain of Ribose-phosphate pyrophosphokinase (Escherichia coli) (P0A717 whole entry, looked up): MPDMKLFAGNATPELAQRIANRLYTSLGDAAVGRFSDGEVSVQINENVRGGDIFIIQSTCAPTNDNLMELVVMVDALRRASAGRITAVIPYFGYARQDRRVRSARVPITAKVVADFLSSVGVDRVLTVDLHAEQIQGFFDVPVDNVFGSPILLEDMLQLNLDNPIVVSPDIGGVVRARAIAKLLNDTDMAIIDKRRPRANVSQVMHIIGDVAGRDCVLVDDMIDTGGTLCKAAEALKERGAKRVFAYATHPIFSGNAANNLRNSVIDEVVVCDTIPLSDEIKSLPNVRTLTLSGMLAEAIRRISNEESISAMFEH

| IC50 [µM] | Structure (SMILES) |
| --- | --- |
| 5100 | Nc1ncnc2c1ncn2[C@@H]1O[C@H](COP(=O)(O)O)[C@H](O)[C@@H]1O [Phosphoric acid mono-[(2R,3R,4S,5R)-5-(6-amino-purin-9-yl)-3,4-dihydroxy-tetrahydro-furan-2-ylmethyl] ester] |
| 600 | Nc1ncnc2c1ncn2[C@H]1CC[C@@H](CCOP(=O)(O)O)C1 [Phosphoric acid mono-{2-[(1R,3S)-3-(6-amino-purin-9-yl)-cyclopentyl]-ethyl} ester] |
| 1000 | Nc1ncnc2c1ncn2[C@H]1CC[C@@H](CC(F)(F)P(=O)(O)O)C1 [{2-[(1R,3S)-3-(6-Amino-purin-9-yl)-cyclopentyl]-1,1-difluoro-ethyl}-phosphonic acid] |

| Structure (SMILES) | IC50 [µM] |
| --- | --- |
| Nc1ncnc2c1ncn2CCOCP(=O)(O)O [9-[2-phosphonomethoxyethyl]adenine] | 3200 |
